Reference: US4421760A, “β-Lactam antibiotic, its preparation and use” (Beecham Group Limited, priority 1980, dated 1983)
≈ marks a conversion by molar mass, not a printed value. Like-named read-outs stand apart in the source and are kept apart here.

Assays:
[1] = system: Streptococcus pneumoniae CN33; assay: Antibacterial activity, microtitre method; format: cell-based
Source text: (§1) The antibacterial activity of the preparation of MM 27696 described in the example has been determined by the microtitre method and is reported in The Table.
(§2) Antibacterial Activity of MM 27696 sodium salt determined
(§3) by the Microtitre Method

Shigella sonnei MB 11967 = assay: Antibacterial activity, microtitre method; format: cell-based; details: MB11967
Source text: as §1, §2, §3

Pseudomonas aeruginosa A = assay: Antibacterial activity, microtitre method; format: cell-based
Source text: as §1, §2, §3

Proteus morganii I580 = assay: Antibacterial activity, microtitre method; format: cell-based; details: Morganella morganii
Source text: as §1, §2, §3

[2] = system: Salmonella typhimurium CT10; assay: Antibacterial activity, microtitre method; format: cell-based; details: Salmonella enterica
Source text: as §1, §2, §3

Escherichia coli JT 39 = assay: Antibacterial activity, microtitre method; format: cell-based; details: JT39
Source text: as §1, §2, §3

[3] = system: Staphylococcus aureus Oxford; assay: Antibacterial activity, microtitre method; format: cell-based
Source text: as §1, §2, §3

Citrobacter freundii E8 = assay: Antibacterial activity, microtitre method; format: cell-based
Source text: as §1, §2, §3

Enterobacter cloacae N1 = assay: Antibacterial activity, microtitre method; format: cell-based
Source text: as §1, §2, §3

E. coli ESS = assay: Antibacterial activity, microtitre method; format: cell-based; details: Escherichia coli
Source text: as §1, §2, §3

Proteus mirabilis C977 = assay: Antibacterial activity, microtitre method; format: cell-based
Source text: as §1, §2, §3

Streptococcus faecalis I = assay: Antibacterial activity, microtitre method; format: cell-based; details: Enterococcus faecalis
Source text: as §1, §2, §3

Proteus vulgaris W091 = assay: Antibacterial activity, microtitre method; format: cell-based
Source text: as §1, §2, §3

Escherichia coli 0111 = assay: Antibacterial activity, microtitre method; format: cell-based
Source text: as §1, §2, §3

Serratia marcescens US20 = assay: Antibacterial activity, microtitre method; format: cell-based
Source text: as §1, §2, §3

[4] = system: Staphylococcus aureus Russell; assay: Antibacterial activity, microtitre method; format: cell-based
Source text: as §1, §2, §3

Klebsiella aerogenes A = assay: Antibacterial activity, microtitre method; format: cell-based
Source text: as §1, §2, §3

[5] = system: Streptococcus pyogenes CN10; assay: Antibacterial activity, microtitre method; format: cell-based
Source text: as §1, §2, §3

Proteus rettgeri WM16 = assay: Antibacterial activity, microtitre method; format: cell-based; details: Providencia rettgeri
Source text: as §1, §2, §3

[6] = system: Staphylococcus aureus 1517; assay: Antibacterial activity, microtitre method; format: cell-based
Source text: as §1, §2, §3

Bacillus subtilis A = assay: Antibacterial activity, microtitre method; format: cell-based
Source text: as §1, §2, §3

E. coli JT4 β-Lactamase = E. coli JT4 β-Lactamase (Escherichia coli, UniProt P62593); assay: β-Lactamase inhibitory activity; format: biochemical; details: read-out: β-Lactamase Inhibitory Activity I50 (converted)
E. coli JT4 β-Lactamase, sequence (P62593 24-286 limits assumed): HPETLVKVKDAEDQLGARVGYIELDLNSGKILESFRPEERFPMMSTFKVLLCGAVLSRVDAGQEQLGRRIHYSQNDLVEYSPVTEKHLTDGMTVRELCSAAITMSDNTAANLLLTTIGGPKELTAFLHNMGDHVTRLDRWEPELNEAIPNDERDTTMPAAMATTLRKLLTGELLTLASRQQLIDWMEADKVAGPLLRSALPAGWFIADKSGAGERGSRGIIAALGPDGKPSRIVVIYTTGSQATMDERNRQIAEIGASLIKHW
Protocol: (§4) β-Lactamase Inhibitory Activity of MM 27696 sodium salt
(§5) b = without preincubation

[7] = target: S. aureus Russell β-Lactamase (Staphylococcus aureus, UniProt P00807); assay: β-Lactamase inhibitory activity; format: biochemical; details: read-out: β-Lactamase Inhibitory Activity I50 (converted)
S. aureus Russell β-Lactamase, sequence (P00807 25-281): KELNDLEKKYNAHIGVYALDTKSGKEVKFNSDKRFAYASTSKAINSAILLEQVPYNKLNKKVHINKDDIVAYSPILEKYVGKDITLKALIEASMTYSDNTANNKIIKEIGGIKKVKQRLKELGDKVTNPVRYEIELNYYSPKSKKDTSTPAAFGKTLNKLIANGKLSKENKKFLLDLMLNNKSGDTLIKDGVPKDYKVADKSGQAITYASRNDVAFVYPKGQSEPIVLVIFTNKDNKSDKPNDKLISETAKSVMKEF
Protocol: as §4, §5

[8] = target: Klebsiella aerogenes E70 β-Lactamase; assay: β-Lactamase inhibitory activity; format: biochemical
Protocol: as §4, §5

[9] = target: Enterobacter cloacae P99 β-Lactamase (Enterobacter cloacae, UniProt P05364); assay: β-Lactamase inhibitory activity; format: biochemical; details: read-out: β-Lactamase Inhibitory Activity I50 (converted)
Enterobacter cloacae P99 β-Lactamase, sequence (P05364 21-381): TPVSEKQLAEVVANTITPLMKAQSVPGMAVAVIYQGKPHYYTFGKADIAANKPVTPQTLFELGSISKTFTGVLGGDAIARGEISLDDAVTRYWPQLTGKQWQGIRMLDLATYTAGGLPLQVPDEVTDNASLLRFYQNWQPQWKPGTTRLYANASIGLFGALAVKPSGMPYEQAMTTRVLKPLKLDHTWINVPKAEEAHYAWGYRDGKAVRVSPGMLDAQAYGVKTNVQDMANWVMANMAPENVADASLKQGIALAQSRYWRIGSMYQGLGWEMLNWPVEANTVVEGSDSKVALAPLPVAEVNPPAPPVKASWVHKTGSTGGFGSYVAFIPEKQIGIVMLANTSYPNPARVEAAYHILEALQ
Protocol: as §4, §5

## CCC(=O)N/C=C/SC1=C(C(=O)O)N2C(=O)[C@@H]([C@H](C)OS(=O)(=O)O)[C@H]2C1 [MM 27696]
[1]
  MIC: < 0.1 µg/mL
Shigella sonnei MB 11967
  MIC: < 0.1 µg/mL
Pseudomonas aeruginosa A
  MIC: 50 µg/mL (≈ 123 µM)
Proteus morganii I580
  MIC: 0.2 µg/mL (≈ 0.492 µM)
[2]
  MIC: 0.2 µg/mL (≈ 0.492 µM)
Escherichia coli JT 39
  MIC: 0.2 µg/mL (≈ 0.492 µM)
[3]
  MIC: 0.4 µg/mL (≈ 0.984 µM)
Citrobacter freundii E8
  MIC: 3.1 µg/mL (≈ 7.63 µM)
Enterobacter cloacae N1
  MIC: 0.2 µg/mL (≈ 0.492 µM)
E. coli ESS
  MIC: < 0.1 µg/mL
Proteus mirabilis C977
  MIC: < 0.1 µg/mL
Streptococcus faecalis I
  MIC: 12.5 µg/mL (≈ 30.8 µM)
Proteus vulgaris W091
  MIC: 0.4 µg/mL (≈ 0.984 µM)
Escherichia coli 0111
  MIC: 0.8 µg/mL (≈ 1.97 µM)
Serratia marcescens US20
  MIC: 6.2 µg/mL (≈ 15.3 µM)
[4]
  MIC: 0.8 µg/mL (≈ 1.97 µM)
Klebsiella aerogenes A
  MIC: 0.4 µg/mL (≈ 0.984 µM)
[5]
  MIC: < 0.1 µg/mL
Proteus rettgeri WM16
  MIC: 0.4 µg/mL (≈ 0.984 µM)
[6]
  MIC: 100 µg/mL (≈ 246 µM)
Bacillus subtilis A
  MIC: < 0.1 µg/mL
E. coli JT4 β-Lactamase; a = with preincubation
  IC50: 24.6 nM
E. coli JT4 β-Lactamase; b = without preincubation
  IC50: 984 nM
[7]; a = with preincubation
  IC50: 73.8 nM
[7]; b = without preincubation
  IC50: > 123000 nM
[8]; a = with preincubation
  β-Lactamase Inhibitory Activity I50: 0.003 µg/mL
[8]; b = without preincubation
  β-Lactamase Inhibitory Activity I50: 0.4 µg/mL
[9]; a = with preincubation
  IC50: 4.92 nM
[9]; b = without preincubation
  IC50: 615 nM
